Measurements: PubChem BioAssay (NCI)
Where “and” joins values, the source holds several entries; their conditions need not be identical. Equal values may be shown once.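 A five-concentration, 48-hour dose response in 96-well plates underlies each endpoint, interpolated linearly between surrounding concentrations. At the GI50, growth is halved. TGI is the concentration that stops growth completely.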

Assays:
Assay in all cases: NCI-60 cell line screen, 48 h
MDA-N = tested on: MDA-N
DLD-1 colon = tested on: DLD-1 colon
DMS 273 small cell lung = tested on: DMS 273 small cell lung
HOP-18 NSCLC = tested on: HOP-18 NSCLC
LXFL 529 NSCLC = tested on: LXFL 529 NSCLC
M19-MEL melanoma = tested on: M19-MEL melanoma
SNB-78 CNS = tested on: SNB-78 CNS
XF 498 CNS = tested on: XF 498 CNS
RXF-631 renal = tested on: RXF-631 renal

Row | Structure (SMILES) | TGI (MDA-N) | TGI (DLD-1 colon) [µM] | TGI (DMS 273 small cell lung) [µM] | TGI (HOP-18 NSCLC) [µM] | TGI (LXFL 529 NSCLC) [µM] | TGI (M19-MEL melanoma) [µM] | TGI (SNB-78 CNS) [µM] | TGI (XF 498 CNS) [µM] | TGI (RXF-631 renal) [µM] | further results
1 | O=[N+]([O-])c1ccccc1N=Nc1c(O)[nH]c2ccccc12 | > 100 µM |  |  |  |  |  |  |  |  | 
2 | [Cu+2].[O-]c1ccc2ccccc2c1N=Nc1ccccc1.[O-]c1ccc2ccccc2c1N=Nc1ccccc1 | > 100 µM |  |  |  |  |  |  |  |  | 
3 | COc1cc(-c2[nH]ccc2Cl)oc1C1=C2N=C3C=C2C(C(C)C)C1CCCCCCCC3 (stereo not drawn) | 1.75 µM | 2.6 | 1.48 | 2.08 | 1.84 | 1.59 | 15.5 | 2.76 |  | 
4 | O=C(O)C1C2CC3C(OC(=O)C31)C2Br (stereo not drawn) | > 100 µM |  |  |  |  |  |  |  |  | 
5 | CC(=O)OC12c3ccccc3C1CCCCCC21OCCCO1 (stereo not drawn) |  | > 100 | > 100 |  | > 100 | > 100 | > 100 |  |  | 
6 | Cc1ccc(C)c(NC(=O)c2cc(-c3ccc([N+](=O)[O-])cc3)nc(N)n2)c1 |  | > 100 | > 100 | > 100 | > 100 | > 100 |  | > 100 |  | 
7 | CC(C)=CCc1c(O)cc(/C=C/c2cc(O)c3c(c2)C[C@@H]2C(C)(C)[C@H](O)[C@H](O)C[C@@]2(C)O3)cc1O | > 10 µM |  |  |  |  |  |  |  |  | GI50 (MDA-N): 1.27 µM
8 | CCOC(=O)CC1(O)C=CC(=O)C=C1 | 7.25 µg/mL |  |  |  |  |  |  |  |  | GI50 (MDA-N): 2.83 µg/mL
9 | CCOc1ccccc1/C=C1\NC(=O)N(/C=C2\C(=O)Oc3ccccc3C2=O)C1=O | > 100 µM |  |  |  |  |  |  |  |  | 
10 | O=c1/c(=C/c2ccc(Cl)cc2Cl)sc2nc3ccccc3n12 |  | > 100 | > 100 | > 100 | > 100 | > 100 | > 100 | > 100 | > 100 | 
11 | CC(NS(C)(=O)=O)c1ccccc1 (stereo not drawn) | > 100 µM |  |  |  |  |  |  |  |  | 
12 | Cn1c(CCC#N)nc2ccc(Br)cc2c1=O |  | > 100 |  |  | > 100 |  |  | > 100 | > 100 | 
13 | COc1ccc(C(c2ccc(C(C)C)cc(=O)c2O)c2c(O)cc3oc(-c4ccccc4)cc(=O)c3c2O)cc1 (stereo not drawn) |  | > 100 | 22 | 80.4 | 71.6 | 26.7 | > 100 | 37 | > 100 | 
14 | CCOC(=O)/N=C(\N)SCc1ccccc1 |  | > 100 | > 100 | > 100 | > 100 | > 100 | > 100 | > 100 | > 100 | 
15 | COc1cc2c(c(OC)c1OC)-c1[nH]ncc1CC2 |  | > 100 | > 100 | > 100 | > 100 | > 100 | > 100 | > 100 |  | 
16 | CN1CCC2(CC1)C(=O)N(N1CCCCCC1)C(=O)N2c1ccccc1 | > 100 µM |  |  |  |  |  |  |  |  | 
17 | COc1cc(/C=C/C(C)=O)ccc1OP(=O)(O)O | > 100 µM |  |  |  |  |  |  |  |  | 
18 | COc1cc([C@@H]2c3cc4c(cc3[C@@H](NCCNCCO)[C@H]3COC(=O)[C@H]23)OCO4)cc(OC)c1O | 21.4 µM and 28.8 µM |  |  |  |  |  |  |  |  | 
19 | CC1(O)CC2C(CC1SCCO)C2(C)C (stereo not drawn) |  | > 100 | > 100 | > 100 | > 100 | > 100 | > 100 | > 100 |  | 
20 | O=C1Nc2ccccc2C1Cc1ccccc1 (stereo not drawn) | > 100 µM |  |  |  |  |  |  |  |  | 
21 | O=c1c2ccc3cccc4c(=O)cc(c5ccccc15)-c2c34 |  | > 100 | > 100 | > 100 | > 100 | 54 |  |  |  | 
22 | O=C1CCCC/C1=C/C=C/c1ccccc1 |  | > 100 |  | > 100 | > 100 | > 100 |  | > 100 | > 100 | 
23 | O=C(Nc1c(-c2nc3ccccc3[nH]2)sc(=S)n1-c1ccccc1)c1ccccc1 |  | > 100 | > 100 | > 100 | > 100 | > 100 | > 100 |  | > 100 | 
24 | COC(=O)c1ccccc1NC(=O)/C(=N\NC(C)(C)C)C(C#N)c1nc(-c2ccc([N+](=O)[O-])cc2)cs1 (stereo not drawn) | > 100 µM |  |  |  |  |  |  |  |  | 
25 | COc1cc(OC)c2c(=O)c(O)c(-c3ccc(OC)c(OC)c3)oc2c1 | > 100 µM |  |  |  |  |  |  |  |  | 
26 | O=C1OC(c2ccc(O)c(-c3ccccc3)c2)(c2ccc(O)c(-c3ccccc3)c2)c2c(Cl)c(Cl)c(Cl)c(Cl)c21 | > 100 µM |  |  |  |  |  |  |  |  | 

Row | Structure (SMILES) | TGI (MDA-N) | TGI (DLD-1 colon) [µM] | TGI (DMS 273 small cell lung) [µM] | TGI (HOP-18 NSCLC) [µM] | TGI (LXFL 529 NSCLC) [µM] | TGI (M19-MEL melanoma) [µM] | TGI (SNB-78 CNS) [µM] | TGI (XF 498 CNS) [µM] | TGI (RXF-631 renal) [µM] | further results
27 | COC(OC)c1cccc2c1C1(O)CCC3(CC21)OCCCCO3 (stereo not drawn) |  | > 100 | > 100 | > 100 | > 100 | > 100 | > 100 |  |  | 
28 | CCCNCc1nc2ccc(Br)cc2c(=O)n1CCC |  | 21.7 | 25.2 | 32.1 | 25.1 | 26.1 | 40.6 | 30.9 | 19 | 
29 | C(=C\c1csnn1)/c1cccnc1 |  | > 100 |  | > 100 | > 100 | > 100 | > 100 | > 100 | > 100 | 
30 | COc1ccc2c3c1C(=O)CCC3CO2 (stereo not drawn) |  | > 100 | > 100 |  | > 100 | > 100 | > 100 | > 100 | > 100 | 
31 | CC(=O)OC1CC2CCC1(C)C2(C)C (stereo not drawn) | > 100 µM |  |  |  |  |  |  |  |  | 
32 | CC(=O)N1CC2Nc3ccccc3C2CC1CO (stereo not drawn) |  | > 100 | > 100 |  | > 100 | > 100 | > 100 | > 100 | > 100 | 
33 | CCCCCCCCCCCC(=O)OCC1OC(n2cc(F)c(=O)[nH]c2=O)C(N)C(OC(=O)CCCCCCCCCCC)C1O (stereo not drawn) |  |  | > 100 |  | > 100 | > 100 | > 100 |  |  | 
34 | Cc1ccccc1C(=O)Oc1ccc(Oc2ccccc2)cc1 |  | > 100 | > 100 | > 100 | > 100 | > 100 | > 100 | > 100 |  | 
35 | CCC[CH2][Sn]([CH2]CCC)([O]C(=O)c1cccc(F)c1)[O]C(=O)c1cccc(F)c1 |  | 2.32 | 3.4 |  | 0.664 | 1.93 | 2.27 | 2.04 | 0.486 | GI50 (DLD-1 colon): 1.11 µM; GI50 (DMS 273 small cell lung): 1.39 µM; GI50 (LXFL 529 NSCLC): 0.228 µM; GI50 (M19-MEL melanoma): 0.575 µM; GI50 (RXF-631 renal): 0.209 µM; GI50 (SNB-78 CNS): 0.702 µM; GI50 (XF 498 CNS): 0.559 µM
36 | O=C1C=C(Nc2ccccc2C(=O)CC(=O)C(=O)Nc2cccc(C(F)(F)F)c2)c2ccccc2C1=O | 26.7 µM | > 37.6 | > 94.4 | 40.6 | 71.5 | 8.48 | > 100 | 48.7 | > 100 | 
37 | Cc1nn(C(=O)c2ccc(Cl)cc2)c2c1C(c1ccc([N+](=O)[O-])cc1)SC(N)=N2 (stereo not drawn) | > 10 µM |  |  |  |  |  |  |  |  | 
38 | Cc1cc(NS(=O)(=O)c2ccc(NC(=O)c3cccc4c(N)c5ccccc5nc34)cc2)no1 |  | > 100 | 49 |  | > 100 | 42.1 | 71.1 | 55.5 | 38.7 | 
39 | CC(=O)O[C@@H]1CO[C@H]2O[C@H]3[C@@H](C(C=O)=C[C@H](O)[C@@H]4C5=C(C(C)C)CC[C@]5(C)CC[C@@]34C)[C@@]2(O)C1=O | 0.415 µM |  |  |  |  |  |  |  |  | 
40 | C=C=C(C)[Si](C)(C)C | > 100 µM |  |  |  |  |  |  |  |  | 
41 | C=C1CC(CCCl)(c2ccccc2)OC1=O (stereo not drawn) |  | 42.5 | > 100 | > 59.3 | 45.4 | > 54.9 | > 81.8 | > 100 | > 62.8 | 
42 | C1COC(NC(C2CC2)C2CC2)=N1 | > 100 µM |  |  |  |  |  |  |  |  | 
43 | O=c1ccccc2cccc(O)c12 |  | > 100 | > 100 | > 100 | > 100 | > 100 | > 100 | > 100 | > 100 | 
44 | O=C(O)/C(=C/c1ccccc1[N+](=O)[O-])c1ccccc1 |  | > 100 | > 100 |  | > 100 | > 100 | > 100 | > 100 | > 100 | 
45 | O=C(N/N=C1\CCc2ccccc2C1)N/N=C1\CCc2ccccc2C1 | > 10 µM |  |  |  |  |  |  |  |  | 
46 | Nc1ccc(Nc2nc(F)nc(-c3c4ccccc4c4n3CCS4)n2)cc1 |  | 34.8 | 24 | 33.9 | 31.1 | 40.5 | > 100 | 20.3 | 32.3 | 
47 | O=S1(=O)CCN(Cc2ccccn2)CC1 | > 100 µM |  |  |  |  |  |  |  |  | 
48 | O=Cc1ccc(-c2ccc(-c3ccc(C=O)s3)o2)s1 | > 100 µM | > 100 | > 100 | > 100 | 0.324 | > 100 | > 100 |  |  | 
49 | CC(c1ccc(Br)cc1)C(C(=O)O)C(=O)O (stereo not drawn) |  | > 100 | > 100 | > 100 | > 100 | > 100 | > 100 |  |  | 
50 | Cc1ccc(NC(=O)/C(CC(=O)c2c[n+](=O)c3ccccc3n2O)=N\NC(=O)C[n+]2ccccc2)cc1 |  | > 100 | > 100 | > 100 | > 100 | > 100 | > 100 | > 100 | > 100 | 
51 | Cc1c(C(=O)/C=C/c2ccc(Cl)cc2)[n+](=O)c2ccccc2n1[O-] |  | 20.4 | 25.4 | 57.7 | 22.5 | 30 | > 100 |  | > 100 | 
52 | CO[C@@H]1[C@@H](OC2OC(C)C(OC3CC(C)(O)C(OC(=O)CC(C)C)C(C)O3)C(N(C)C)C2O)[C@@H](CC=O)C[C@@H](C)C(=O)/C=C/C2O[C@H]2C[C@@H](C)OC(=O)C[C@H]1OC(C)=O (stereo partly drawn) | 29.8 µM |  |  |  |  |  |  |  |  | 
